Laboratory results: patent US20260001914A1, “MACROCYCLIC PEPTIDES TARGETING KRAS” (Merck Sharp & Dohme LLC, priority 2022, published 2026)
*1 amine or outer side, *2 acyl side, *3 side chain or, on linkers, in order; H or OH if unused. Where a SMILES comes first, the peptide text is derived from it. Bridges are numbered along the chain shown (N, C = ends). Where no end group is shown, it is not given here. [ ]: non-standard residue; d: D form. NMeNva(5-imidazol-1-yl) = CN[C@@H](CCCn1ccnc1)C(=O)O; Phe(4-guanidino) = N=C(N)Nc1ccc(C[C@H](N)C(=O)O)cc1; X19 = C[C@H](c1ccccc1)[C@@H](C(=O)[*:2])N(C)[*:1]; Ala(pyrimidin-5-yl) = N[C@@H](Cc1cncnc1)C(=O)O; X29 = CC(=O)N(C)CCC[C@@H](C(=O)[*:2])N(C)[*:1]; Gly(N-(CH2)3-guanidino) = N=C(N)NCCCNCC(=O)O; NMe3Pal(6-Me) = CN[C@@H](Cc1ccc(C)nc1)C(=O)O; X6 = O=C([C@H](Cc1cnn(C2COC2)c1)N[*:1])[*:2]; X43 = CN([C@@H](Cc1cnccc1F)C(=O)[*:2])[*:1]; NMePhe(4-F) = CN[C@@H](Cc1ccc(F)cc1)C(=O)O; X10 = CS(=O)(=O)CCCCN(CC(=O)[*:2])[*:1]; X11 = CC(C)(F)CC[C@H](N[*:1])C(=O)[*:2]; X46 = O=C([C@H](Cc1cccnc1F)N[*:1])[*:2]; NMeAha = CN[C@@H](CCN=[N+]=[N-])C(=O)O; Phe(2-F) = N[C@@H](Cc1ccccc1F)C(=O)O; NMe3Pal = CN[C@@H](Cc1cccnc1)C(=O)O; X1 = O=C(C12CC(CN[*:1])(C1)C2)[*:2]; NMeCha = CN[C@@H](CC1CCCCC1)C(=O)O; NMeLys(Me) = CNCCCC[C@H](NC)C(=O)O; NMeOrn(Me) = CNCCC[C@H](NC)C(=O)O; Ala(cPr) = N[C@@H](CC1CC1)C(=O)O; NMeF = CN[C@@H](Cc1ccccc1)C(=O)O; PhLac = O=C(O)[C@@H](O)Cc1ccccc1; 3Pal = N[C@@H](Cc1cccnc1)C(=O)O; Ahp(2) = CCCCC[C@H](N)C(=O)O; Cba = N[C@@H](CC1CCC1)C(=O)O; hLeu = CC(C)CC[C@H](N)C(=O)O; NMeS = CN[C@@H](CO)C(=O)O; αMeC = C[C@](N)(CS)C(=O)O; NMeA = CN[C@@H](C)C(=O)O; Nle = CCCC[C@H](N)C(=O)O

B1: cyclo(F-R-Y-L-V-Ahp-NMeF-dC-C1Ac) (peptide)
peptide: {CH2CO}-FRYLV[Ahp(2)][NMeF][dC]
modifications: thioether N-8 (inferred); not fully specified (C-terminus); printed as cyclo(F-R-Y-L-V-Ahp-NMeF-dC-C1Ac)

What follows are molecules tested against phosphorylation levels of ERK1/2 in AsPC-1 (homozygous KRAS-G12D) cells (Homo sapiens, UniProt P01116, G12D) (assay: Cellular phospho-ERK assay in AsPC-1 cells (Alpha Screen), assay medium without fetal bovine serum). Details: phospho-ERK AlphaScreen, 18 h.
Format: cell-based
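For EC50 in this document: signal taken as phospho-ERK over total ERK per well, both detected in one multiplex bead assay, EC50 from four-parameter logistic fit of dose-response curves.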

| Molecule | EC50 [µM] |
| --- | --- |
| CC(C)CC[C@@H]1NC(=O)[C@H](Cc2cnn(C3COC3)c2)NC(=O)[C@H](CC2CC2)NC(=O)[C@H](Cc2cncnc2)NC(=O)[C@H](C)N(C)C(=O)[C@H](Cc2ccccc2)OC(=O)C23CC(CNC(=O)[C@H](Cc4ccccc4)N(C)C1=O)(C2)C3 [compound 300, cyclo(FLac-NMeA-PyrimAla-cPrA-AlaPyz1Ox-hL-NMeF-amBCP)] (cyclo([Ala(cPr)][X6][hLeu][NMeF][X1][PhLac][NMeA][Ala(pyrimidin-5-yl)])) | > 50.8 |
| CCCCC[C@@H]1NC(=O)[C@H](Cc2ccc(OC)cc2)NC(=O)[C@H](CC2CCC2)NC(=O)[C@H](Cc2ccc(NC(=N)N)cc2)NC(=O)CN(CCCNC(=N)N)C(=O)[C@H](Cc2ccccc2)NC(=O)CSC[C@@](C)(C(N)=O)NC(=O)[C@H](Cc2ccccc2)N(C)C1=O [compound 361, cyclo(F-NGnG-Phe4Gn-cBuA-TyrOMe-Ahp-NMeF-aMeCl-ClAc)] ({CH2CO}-F[Gly(N-(CH2)3-guanidino)][Phe(4-guanidino)][Cba]Y(Me)[Ahp(2)][NMeF][αMeC]-NH2; thioether N-8) | 39.7 |
| C[C@H](c1ccccc1)[C@H]1C(=O)NCC23CC(C2)(C3)C(=O)O[C@@H](Cc2ccccc2)C(=O)N(C)[C@@H](C)C(=O)N[C@@H](Cc2cncnc2)C(=O)N[C@@H](CC2CC2)C(=O)N[C@@H](Cc2ccccc2F)C(=O)N[C@@H](CCC(C)(C)F)C(=O)N1C [compound 341, cyclo(FLac-NMeA-PyrimAla-cPrA-Phe2F-hL3F-NMeRbMeF-amBCP)] (cyclo([Ala(cPr)][Phe(2-F)][X11][X19][X1][PhLac][NMeA][Ala(pyrimidin-5-yl)])) | > 50.8 |
| CCCC[C@@H]1NC(=O)[C@H](Cc2cncnc2)NC(=O)[C@H](CO)N(C)C(=O)[C@H](Cc2ccccc2)OC(=O)C23CC(CNC(=O)[C@H](Cc4cccnc4)N(C)C(=O)[C@H](CCCC)NC(=O)[C@H](Cc4ccccc4F)NC1=O)(C2)C3 [compound 119, cyclo(FLac-NMeS-PyrimAla-Nle-Phe2F-Nle-NMe3Pal-amBCP)] (cyclo([NMe3Pal][X1][PhLac][NMeS][Ala(pyrimidin-5-yl)][Nle][Phe(2-F)][Nle])) | > 50.8 |
| CCCC[C@@H]1NC(=O)[C@H](Cc2cccnc2)NC(=O)[C@H](C)N(C)C(=O)[C@H](Cc2ccccc2)OC(=O)C23CC(CNC(=O)[C@H](CC4CCCCC4)N(C)C(=O)[C@H](CCCC)NC(=O)[C@H](Cc4ccccc4F)NC1=O)(C2)C3 [compound 232, cyclo(FLac-NMeA-3Pal-Nle-Phe2F-Nle-NMeCha-amBCP)] (cyclo([3Pal][Nle][Phe(2-F)][Nle][NMeCha][X1][PhLac][NMeA])) | > 50.8 |
| CC(C)CC[C@@H]1NC(=O)[C@H](Cc2ccccc2F)NC(=O)[C@H](CC2CC2)NC(=O)[C@H](Cc2cncnc2)NC(=O)[C@H](C)N(C)C(=O)[C@H](Cc2ccccc2)OC(=O)C23CC(CNC(=O)[C@H](Cc4cnccc4F)N(C)C1=O)(C2)C3 [compound 338, cyclo(FLac-NMeA-PyrimAla-cPrA-Phe2F-hL-NMe3Pal6F-amBCP)] (cyclo([Ala(cPr)][Phe(2-F)][hLeu][X43][X1][PhLac][NMeA][Ala(pyrimidin-5-yl)])) | 1.86 |
| CC(C)CC[C@@H]1NC(=O)[C@H](Cc2cccnc2F)NC(=O)[C@H](CC2CC2)NC(=O)[C@H](Cc2cncnc2)NC(=O)[C@H](C)N(C)C(=O)[C@H](Cc2ccccc2)OC(=O)C23CC(CNC(=O)[C@H](Cc4ccccc4)N(C)C1=O)(C2)C3 [compound 215, cyclo(FLac-NMeA-PyrimAla-cPrA-3Pal2F-hL-NMeF-amBCP)] (cyclo([Ala(cPr)][X46][hLeu][NMeF][X1][PhLac][NMeA][Ala(pyrimidin-5-yl)])) | 4.18 |
| CCCC[C@@H]1NC(=O)[C@H](Cc2cccnc2)NC(=O)[C@H](CCCNC(=N)N)NC(=O)[C@H](Cc2ccccc2)NC(=O)CSC[C@@](C)(C(N)=O)NC(=O)[C@H](Cc2ccccc2)N(C)C(=O)[C@H](CCCC)NC(=O)[C@H](Cc2ccccc2F)NC1=O [compound 160, cyclo(F-R-3Pal-Nle-Phe2F-Nle-NMeF-aMeCl-ClAc)] ({CH2CO}-FR[3Pal][Nle][Phe(2-F)][Nle][NMeF][αMeC]-NH2; thioether N-8) | > 50.8 |
| CCCC[C@@H]1NC(=O)[C@H](Cc2cccnc2)NC(=O)[C@H](CCCN(C)C(C)=O)N(C)C(=O)[C@H](Cc2ccccc2)OC(=O)C23CC(CNC(=O)[C@H](Cc4cccnc4)N(C)C(=O)[C@H](CCCC)NC(=O)[C@H](Cc4ccccc4F)NC1=O)(C2)C3 [compound 405, cyclo(FLac-NMeOrnAc-3Pal-Nle-Phe2F-Nle-NMe3Pal-amBCP)] (cyclo([3Pal][Nle][Phe(2-F)][Nle][NMe3Pal][X1][PhLac][X29])) | > 50.8 |
| CCCC[C@@H]1NC(=O)[C@H](Cc2cncnc2)NC(=O)[C@H](C)N(C)C(=O)[C@H](Cc2ccccc2)OC(=O)C23CC(CNC(=O)[C@H](Cc4ccc(F)cc4)N(C)C(=O)[C@H](CCCC)NC(=O)[C@H](Cc4ccccc4F)NC1=O)(C2)C3 [compound 173, cyclo(FLac-NMeA-PyrimAla-Nle-Phe2F-Nle-NMePhe4F-amBCP)] (cyclo([NMeA][Ala(pyrimidin-5-yl)][Nle][Phe(2-F)][Nle][NMePhe(4-F)][X1][PhLac])) | 0.994 |
| C[C@H]1C(=O)N[C@@H](Cc2cncnc2)C(=O)N[C@@H](CC2CC2)C(=O)N[C@@H](Cc2ccccc2F)C(=O)N[C@@H](CCC(C)(C)F)C(=O)N(C)[C@@H](Cc2ccccc2)C(=O)NCC23CC(C2)(C3)C(=O)O[C@@H](Cc2ccccc2)C(=O)N1C [compound 277, cyclo(FLac-NMeA-PyrimAla-cPrA-Phe2F-hL3F-NMeF-amBCP)] (cyclo([Ala(cPr)][Phe(2-F)][X11][NMeF][X1][PhLac][NMeA][Ala(pyrimidin-5-yl)])) | 0.793 |
| CCCCC[C@@H]1NC(=O)[C@H](Cc2ccc(OC)cc2)NC(=O)[C@H](CC2CCC2)NC(=O)[C@H](Cc2cccnc2)NC(=O)[C@H](CCCNC)N(C)C(=O)[C@H](Cc2ccccc2)NC(=O)CSC[C@@](C)(C(N)=O)NC(=O)[C@H](Cc2ccc(C)nc2)N(C)C1=O [compound 393, cyclo(F-NMeOrnMe-3Pal-cBuA-TyrOMe-Ahp-NMe3Pal4Me-aMeCl-ClAc)] ({CH2CO}-F[NMeOrn(Me)][3Pal][Cba]Y(Me)[Ahp(2)][NMe3Pal(6-Me)][αMeC]-NH2; thioether N-8) | > 50.8 |
| CCCC[C@@H]1NC(=O)[C@H](Cc2cncnc2)NC(=O)[C@H](CCN=[N+]=[N-])N(C)C(=O)[C@H](Cc2ccccc2)OC(=O)C23CC(CNC(=O)[C@H](Cc4cccnc4)N(C)C(=O)[C@H](CCCC)NC(=O)[C@H](Cc4ccccc4F)NC1=O)(C2)C3 [compound 242, cyclo(FLac-NMeDabN3-PyrimAla-Nle-Phe2F-Nle-NMe3Pal-amBCP)] (cyclo([NMe3Pal][X1][PhLac][NMeAha][Ala(pyrimidin-5-yl)][Nle][Phe(2-F)][Nle])) | 11.6 |
| CCCC[C@@H]1NC(=O)[C@H](Cc2cccnc2)NC(=O)CN(CCCCS(C)(=O)=O)C(=O)[C@H](Cc2ccccc2)OC(=O)C23CC(CNC(=O)[C@H](Cc4cccnc4)N(C)C(=O)[C@H](CCCC)NC(=O)[C@H](Cc4ccccc4F)NC1=O)(C2)C3 [compound 407, cyclo(FLac-NOHmsbGly-3Pal-Nle-Phe2F-Nle-NMe3Pal-amBCP)] (cyclo([3Pal][Nle][Phe(2-F)][Nle][NMe3Pal][X1][PhLac][X10])) | > 50.8 |
| CCCCC[C@@H]1NC(=O)[C@H](Cc2ccc(OC)cc2)NC(=O)[C@H](CC2CCC2)NC(=O)[C@H](Cc2ccc(NC(=N)N)cc2)NC(=O)[C@H](CCCCNC)N(C)C(=O)[C@H](Cc2ccccc2)NC(=O)CSC[C@@](C)(C(N)=O)NC(=O)[C@H](Cc2ccccc2)N(C)C1=O [compound 360, cyclo(F-NMeLysMe-Phe4Gn-cBuA-TyrOMe-Ahp-NMeF-aMeCl-ClAc)] ({CH2CO}-F[NMeLys(Me)][Phe(4-guanidino)][Cba]Y(Me)[Ahp(2)][NMeF][αMeC]-NH2; thioether N-8) | > 50.8 |
| CCCC[C@@H]1NC(=O)[C@H](Cc2cccnc2)NC(=O)[C@H](C)N(C)C(=O)[C@H](Cc2ccccc2)OC(=O)C23CC(CNC(=O)[C@H](Cc4cccnc4)N(C)C(=O)[C@H](CCCC)NC(=O)[C@H](Cc4ccccc4F)NC1=O)(C2)C3 [compound 244, cyclo(FLac-NMeA-3Pal-Nle-Phe2F-Nle-NMe3Pal-amBCP)] (cyclo([3Pal][Nle][Phe(2-F)][Nle][NMe3Pal][X1][PhLac][NMeA])) | 7.3 |
| CCCCC[C@@H]1NC(=O)[C@H](Cc2ccc(OC)cc2)NC(=O)[C@H](CC2CCC2)NC(=O)[C@H](Cc2ccc(-c3cccnc3N)cc2)NC(=O)[C@H](CCCNC(=N)N)NC(=O)[C@H](Cc2ccccc2)NC(=O)CSC[C@@](C)(C(N)=O)NC(=O)[C@H](Cc2ccccc2)N(C)C1=O [compound 390, cyclo(F-R-Phe43PyNH2-cBuA-TyrOMe-Ahp-NMeF-aMeCl-ClAc)] | > 50.8 |
| CCCC[C@@H]1NC(=O)[C@H](Cc2cncnc2)NC(=O)[C@H](CCCn2ccnc2)N(C)C(=O)[C@H](Cc2ccccc2)OC(=O)C23CC(CNC(=O)[C@H](Cc4cccnc4)N(C)C(=O)[C@H](CCCC)NC(=O)[C@H](Cc4ccccc4F)NC1=O)(C2)C3 [compound 240, cyclo(FLac-NMeNvalmid-PyrimAla-Nle-Phe2F-Nle-NMe3Pal-amBCP)] (cyclo([NMe3Pal][X1][PhLac][NMeNva(5-imidazol-1-yl)][Ala(pyrimidin-5-yl)][Nle][Phe(2-F)][Nle])) | > 50.8 |
| CCCC[C@@H]1NC(=O)[C@H](Cc2cncnc2)NC(=O)[C@H](C)N(C)C(=O)[C@H](Cc2ccccc2)OC(=O)C23CC(CNC(=O)[C@H](Cc4ccccc4)N(C)C(=O)[C@H](CCC(C)C)NC(=O)[C@H](Cc4ccccc4F)NC1=O)(C2)C3 [compound 132, cyclo(FLac-NMeA-PyrimAla-Nle-Phe2F-hL-NMeF-amBCP)] (cyclo([NMeA][Ala(pyrimidin-5-yl)][Nle][Phe(2-F)][hLeu][NMeF][X1][PhLac])) | 1.11 |

These molecules were tested against Biotin-labeled KRAS-G12D protein (UniProt P01116-2 1-169, limits assumed, biotin label (site not stated); loaded with BODIPY-GDP) (assay: cell-based or functional assay). Details: not given.

| SOS assay EC50 [µM] | Molecule |
| --- | --- |
| 4.49 | cyclo(F-R-hK-Nle-Bip-hY-NMeF-Cysteamine-C1Ac) (peptide) |
| 1.16 | cyclo(F-ArgMeMe-Phe4Gn-L-TyrOMe-Nle-NMeF-dC1-C1Ac) (peptide) |
| 7.14 | B1 |
